Data as given in patent US5705501A, “Certain substituted 1-aryl-3-morpholinopropanones to treat Alzheimer's Disease” (priority 1994, dated 1998).
Structures can show the parent of a compound that is named as a salt.

Columns and labels:
[1] = tested on: paired helical filament epitopes (TG3) in human brain tissue; experiment: Direct ELISA with TG3 antibody on post-mortem brain tissue of patients (second retrospective study); assay type: in vivo; conditions: chlorpromazine treated patients (Rx), N 51, summed absorbance
Excerpt: In a subsequent study, 51 additional patients were identified and the analysis was repeated as above using the TG3 antibody in an ELISA format. The results, summarized in Table 1, clearly reproduce and confirm the first retrospective study. Immunohistopathological studies carried out on several brain regions from these patients were consistent with these ELISA results. Taken together, these two studies provide evidence of the therapeutic benefit of chlorpromazine in AD and validate the use of the MSN1a model for the identification of therapeutically useful compounds for the treatment of AD.
*Signal is calculated by summing the means of duplicate absorbance
readings (direct ELISA using TG3 antibody) for 8 dilutions of all lysates
prepared by one to two serial dilutions.

[2] = tested on: TG3 immunoreactivity in OKA treated MSN1a cells; experiment: Inhibition of TG3 immunoreactivity in OKA treated MSN1a cells (ELISA); assay type: cell-based, human; conditions: TG3 antibody; for IC50: Homo sapiens, 1 μM OKA, 0-64 μM drug, 2 hrs at 37° C.
Protocol: This assay can thus be used to determine whether a drug is capable of preventing or intervening in AD by attenuating the production of abnormally phosphorylated paired helical filament epitopes associated with AD. To determine whether a drug is capable of preventing or intervening in AD activity, the MSN1a cells containing tau and associated proteins are treated with OKA capable of greatly increasing immunoreactivity of the MSN1a cells with AD specific monoclonal antibodies. Then, either prior to or concomitantly with OKA treatment, a compound of the present invention is added to the culture. If the compound prevents the induction of the AD epitopes in the MSN1a cells treated with OKA, then it is said to have anti-AD activity. If the AD-specific antibodies are highly reactive with the neuroblastoma cells following OKA treatment in the presence of compound, then the compound is said to be ineffectual against AD.
The MSN1a human neuroblastoma line was subcloned from a population of MSN cells obtained from the laboratory of Dr. Peter Davies (Albert Einstein College of Medicine, New York, N.Y.). Cells were grown and maintained in flasks in RPMI 1640 medium, supplemented with 15% fetal calf serum, 100 U/ml penicillin, 100 U/ml Streptomycin, 0.5 ug/ml fungizone under 7.5% CO2 at 37° C.
Stock solutions of drugs were prepared by dissolving the anhydrous powders to final concentrations of either 10 or 20 mM in 50% aqueous or 100% dimethyl sulfoxide (DMSO), respectively. Working solutions of drugs were prepared by dilution of the stock solutions with Kreb's Ringer in Hepes buffer (KRH) (128 mM NaCl, 5 mM KCl, 2.5 mM CaCl2 1.2 mM MgSO4, 1 mM Na2 HPO4, 10 mM dextrose, 20 mM Hepes, pH 7.4). OKA is maintained as a 1 mM stock solution in DMSO prior to dilution to 4 μM in KRH.
MSN cells grown in 225 cm^2 flasks are removed from the incubator, their medium decanted and replaced with 50 ml pre-warmed KRH. The cells are harvested by scraping prior to sedimentation at 1000 rpm for 5 min. The supernatants are discarded and the cell pellets are resuspended, the cells counted and diluted to a density of 2×10^4 cells/[…]. The cells are then plated in a 96 well plate at 50 μl/well and 25 μl of 4 μM OKA and 25 μl of drug are then added to the appropriate wells; the entire 96 well plate is then incubated for 2 hrs at 37° C. Depending on the dilution of drug added, this yields individual wells containing 1 μM OKA, 0-64 μM drug and 2×10^4 cells in 0.26% DMSO in KRH. The incubation is terminated by the addition of 20 μl of 6X extraction buffer and immediate freezing at -80° C. for at least one hr. The 6X extraction buffer contains: 25 mM Tris-HCl, pH 7.6, 150 mM NaCl, 5 mM EDTA, 24 mM δ-glycerol phosphate, 10 μg/ml APMSF (4-amidinophenylmethane-sulfonyl flouride), and 2.5 μg/ml each of leupeptin, aprotinin, and pepstatin. The plates are thawed in a 37° C. water bath and 20 μl of cell lysate is added to a replica well in an ELISA plate that already contains 80 μl of coating buffer (15 mM Na2 CO3 and 35 mM NaHCO3, pH 9.6). The plates are allowed to coat overnight at 4° C. The plates are washed four times with deionized water and then blocked for 30 min at 37° C. with 200 μl/well pre-warmed 1% bovine serum albumin in 10 mM Tris-HCl, pH 7.4, 150 mM NaCl, 3 mM NaN3 (BSA-TBS). After the blocking solution is removed, 100 μl/well of an appropriate dilution of pre-warmed primary antibody (eg., TG3 or PHF-1) in BSA-TBS is added and incubated at 37° C. for 30 min. Incubation is terminated by washing four times in deionized water at which time 100 μl of an appropriate dilution of pre-warmed secondary antibody (conjugated to alkaline phosphatase) in BSA-TBS is added to each well in the ELISA plate. Incubation is performed for 30 min at 37° C. followed by washing 4 times with deionized water. […] of prewarmed chromogenic substrate (1 mg/ml p-nitrophenyl phosphate in 10% diethanolamine, 3 mM NAN3, 0.5 mM MgCl2, pH 9.8) is added and the plate incubated for 30 min at 37° C. […]

[3] = tested on: paired helical filament epitopes (PHF-1) in MSN1a cells; experiment: Western blot of PHF-1 immunoreactivity in MSN1a cells treated with okadaic acid; assay type: cell-based, human
Protocol: FIG. 3 is a western blot showing PHF-1 immunoreactivity in lysates from control and chlorpromazine treated MSN cells treated with okadaic acid.
These compounds are effective at micromolar concentrations, with increased potency being evident when cells are treated prior to the addition of okadaic acid. The effective concentrations appear to be in the range at which these drugs are present in the brain following chronic treatment of psychiatric patients (Svendsen, CN, Psychopharmacology, 90, 316-321, 1986).
To determine the effect of chlorpromazine on the paired helical filament epitopes associated with AD, MSN1a cells expressing paired helical filament epitopes were incubated with […] chlorpromazine (CPZ) or a 0.2% DMSO vehicle control for 2 hours at 37° C. The cells were isolated by centrifugation, boiled for 10 minutes and […] protein from the resulting heat stable supernatants were loaded per lane on an SDS-PAGE gel. The gel was electrophoretically transferred to nitrocellulose membrane and then immunostained with PHF-1. […] The use of the MSN1a cell culture model for screening of novel compounds for therapeutic activity in AD is, therefore, quite warranted.

[4] = tested on: PHF epitope (ADAP) levels in human brain tissue; experiment: ALZ-EIA of PHF epitope (ADAP) levels in post-mortem brain tissue of chronically treated patients (first retrospective study); assay type: in vivo; conditions: chronically chlorpromazine treated patients (Rx), Brodman areas 10 and 38, ALZ-EIA
Protocol: FIG. 4A is a chart showing relative ADAP concentrations in Brodman Area 10 in Alzheimer's Disease patients, normal controls and patients treated with chloropromazine (Rx).
FIG. 4B is a chart showing relative ADAP concentrations in Brodman Area 38 in Alzheimer's Disease patients, normal controls and patients treated with chloropromazine (Rx).
Frontal and cortical brain tissue specimens obtained at autopsy from patients chronically treated with chlorpromazine were analyzed using the ALZ-EIA method previously described (Ghanbari, H A, et al, JAMA, 263, 2907, 1990). The results are shown in FIGS. 4A and 4B frontal (Broadman area 10) and temporal (Broadman area 38) regions, respectively. The brain tissue (post-mortem) from approximately the same number of (age matched) normal controls and Alzheimer's Disease patients were also analyzed and are presented in these figures as negative and positive controls (for normal and AD, respectively).

[5] = tested on: PHF-1 and TG3 epitopes in MSN1a cells; experiment: Generation of Alzheimer brain specific epitopes in MSN1a cells; assay type: cell-based, human; conditions: epitopes absent or very low in untreated cells
Protocol: Conditions were established which led to hyperphosphorylation of the proteins known to be involved in PHF formation. Using monoclonal antibodies PHF-1 and TG3 generated to human PHF preparations, the effects of a variety of manipulations of the phosphorylation state of these proteins were tested. These tests required that most of the abnormal epitopes recognized by these monoclonal antibodies in the human Alzheimer brain should be generated in the MSN1a cells. […] These epitopes are either absent or present at a very low level in untreated MSN1a cells.
Shown in FIG. 2A are bar graphs (percent of AD) of the ELISA immunoreactivity of brain preparations (AD or normal) to either PHF-1 or TG3. Shown in FIG. 2B are bar graphs (percent of MSN+) of the ELISA immunoreactivity of MSN1 a cell preparations (minus or plus okadaic acid) to either PHF-1 or TG3. The MSN1a cell preparations plus vs minus okadaic acid closely parallel the AD vs normal brain preparations. […] The cell culture system according to the invention in which epitopes characteristic of PHF can be readily generated and subsequently recognized by the specific Alzheimer brain specific antibodies provides an assay suitable for screening compounds for their ability to block the production of these phosphorylated epitopes.

Compound | IC50 [2] | other results
CN(C)CCCN1c2ccccc2Sc2ccc(Cl)cc21 [Chlorpromazine, chlorpromazine] | ~70 µM | SIGNAL ± SEM, Temporal ([1]; Normal 0.00 ± 0.00, AD 17.55 ± 2.82): 0.16 ± 0.11; SIGNAL ± SEM, Frontal ([1]; Normal 0.12 ± 0.12, AD 16.54 ± 2.59): 0.12 ± 0.11; inhibition of production of aberrant phosphorylated epitopes in the MSN1a cell culture model (in words) [2]: effective in inhibiting the production of these aberrant phosphorylated epitopes; production of paired helical filament epitopes ([3]; 100 mM chlorpromazine, 2 hours at 37° C., PHF-1 immunostain): greatly decreased the production of paired helical filament epitopes; inhibition of expression of PHF epitopes upon treatment of MSN1a cells with okadaic acid ([3]; AD specific antibodies, FIG. 3): markedly inhibit the expression of PHF epitopes; PHF epitope levels in brain [4]: low PHF epitope levels similar to normal controls
CN1CCN(CCC(=O)c2ccccc2)CC1 [Example 1, 1-Phenyl-3-(4'-methyl-1'-piperazinyl)-1-propanone dihydrochloride] | 12.4 µM | –
CCCN1CCN(CCC(=O)c2cccc(C)c2)CC1 [Example 5, 1-(m-Methylphenyl)-3-(4'-propyl-1'-piperazinyl)-1-propanone dihydrochloride] | 15.8 µM | –
Cc1cccc(C(=O)CCN2CCOCC2)c1 [Example 9, 1-(m-Methylphenyl)-3-(4'-morpholinyl)-1-propanone hydrochloride] | 5.4 µM | –
COc1ccccc1C(=O)CCN1CCOCC1 [Example 13, 1-(o-Methoxyphenyl)-3-(4'-morpholinyl)-1-propanone hydrochloride] | 9.1 µM | –
O=C(CCN1CCOCC1)c1cc(Cl)ccc1Cl [Example 17, 1-(2",5"-Dichlorophenyl)-3-(4'-morpholinyl)-1-propanone hydrochloride] | 15.8 µM | –
CN1CCN(CCC(=O)c2ccccc2F)CC1 [Example 23, 1-(o-Fluorophenyl)-3-(4'-methyl-1'-piperazinyl)-1-propanone dihydrochloride] | 13.2 µM | –
CC1CN(CCC(=O)c2cccc([N+](=O)[O-])c2)CC(C)N1 (centres unmarked) [Example 26, 1-(m-Nitrophenyl)-3-(2',6'-dimethyl-4'-piperazinyl)-1-propanone dihydrochloride] | 7.3 µM | –
O=C(CCN1CCOCC1)c1cccc([N+](=O)[O-])c1 [Example 30, 1-(m-Nitrophenyl)-3-(4'-morpholinyl)-1-propanone hydrochloride] | 5.9 µM | –
CN(c1cccc(C(=O)CCN2CCOCC2)c1)S(C)(=O)=O [Example 34, 1-[m-(N-Methyl-N-methylsulfonylamino)phenyl]-3-(4'-morpholinyl)-1-propanone hydrochloride] | 7.5 µM | –
O=C(CCN1CCOCC1)c1cccc(Cl)c1 [Example 38, 1-(m-Chlorophenyl)-3-(4'-morpholinyl)-1-propanone hydrochloride] | 5.8 µM | –
O=C(CCN1CCOCC1)c1ccc(Br)cc1 [Example 42, 1-(p-Bromophenyl)-3-(4'-morpholinyl)-1-propanone hydrochloride] | 6.4 µM | –
CC1CN(CCC(=O)c2ccccc2)C(C)CN1CCC(=O)c1ccccc1 (centres unmarked) [Example 45, 1,4-Bis-(3'-Phenylpropane-3'-one-1'-yl)-2,5-dimethylpiperazine dihydrochloride] | 11.4 µM | –
C=C1[C@@H](O)[C@@H]2O[C@]3(CC[C@H](/C=C/[C@@H](C)[C@@H]4CC(C)=C[C@@]5(O[C@H](C[C@@](C)(O)C(=O)O)CC[C@H]5O)O4)O3)CC[C@H]2O[C@@H]1[C@@H](O)C[C@H](C)[C@H]1O[C@@]2(CCCCO2)CC[C@H]1C [okadaic acid] | – | generation of the epitopes associated with Alzheimer brain specific monoclonal antibodies [5]: found to generate the epitopes
